In paper PMC10447463, “Data-mining unveils structure–property–activity correlation of viral infectivity enhancing self-assembling peptides” (Nature Communications, 2023):
Like-named read-outs stand apart in the source and are kept apart here.

Legend:
[1] = Turbidity, derived count rate of scattered light; assay type: physicochemical; conditions: for Count Rate: derived count rate of scattered light (turbidity); for Log10 Count Rate: turbidity, derived count rate of scattered light, data of Figure 2D
[2] = Zeta-potential measurement; assay type: physicochemical
Outline: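 Readout: zeta potential (mV) derived by Smoluchowski from measured electrophoretic mobility. Preformed aggregates (1 mg/mL peptide, PBS pH 7.4, RT for 1 d) were diluted into dilute KCl electrolyte (1 mM) shortly before analysis.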

[3] = Turbidity, derived count rate of scattered light; assay type: physicochemical; conditions: for Count Rate / kcps: derived count rate of scattered light at 633 nm, 173°, from zeta-potential measurement, 0.1 mg/mL in 1 mM KCl after 1 d at 1 mg/mL in PBS, turbidity / microscopic aggregation, mean of triplicate; for Zeta Count Rate: peptides with TEM 2cat 0
Outline: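 Samples: 1 mg/mL in PBS pH 7.4 (from DMSO), 1 d at RT, then diluted in 1 mM KCl immediately before measurement. Triplicates, two independent runs averaged.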

[4] = test system: HIV-1 infection of TZM-bl cells; test: HIV-1 infectivity enhancement assay, β-galactosidase luminescence; assay type: cell-based; conditions: for Rel-EFC: infection relative to EF-C (QCKIKQIINMWQ = 1); for Log10 Infection Rel EFC: log10 of infection relative to EF-C; for Log Infectivity: Log10 infection relative to EF-C, asymmetric std dev errors; for Log Infectivity / Abs. Inf.: TZM-bl cells; for Log10 Infection Rel EF-C: HIV-1 infection of TZM-bl cells; for Log10 of Rel to EFC (Feb2021): Log10 of infection relative to EF-C; for Abs. Inf.: absolute HIV-1 infection signal, β-galactosidase luminescence
[5] = β-sheet content by ATR-FT-IR; assay type: physicochemical; conditions: for b -sheet / %: Fig. S7 panel A, β-sheet content by ATR-FT-IR; for beta sheet: peptides with TEM 2cat 0
Outline: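 First, PNF was ultrafiltered (3 kDa MWCO, 16200 x g, 45 min, 4 °C). Next, filtrate and unfiltered sample were lyophilized and taken up in DMSO. Then fluorescamine was added for 20 min at RT before reading ex 365/em 470 nm. β-sheet: ATR FT-IR of lyophilized 1 mg/mL PNF.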

[6] = zeta potential of peptide assemblies
[7] = zeta-potential of peptide, source data of Figure 2C
[8] = zeta-potential of the peptide assemblies, mean, Figure 3A source data
[9] = Log10 of derived count rate of scattered light (turbidity)
[10] = log10 of derived count rate of scattered light (turbidity)
[11] = turbidity, Log10 of derived count rate of scattered light, Figure 3A source data
[12] = Fig. S7 panel A (plotted against β-sheet content)
[13] = Log10 of infection rate relative to EF-C, Figure 3A source data
[14] = infection rate relative to EF-C, log10, data of Figure 2D
[15] = infection rate relative to EF-C, log10, source data of Figure 2C
[16] = second listing, peptides with TEM 2cat 0

| Substance | Count Rate [1] | Log10 Count Rate [1] | Zeta-Pot. [2, 6] | Zeta-Potential / mV [2, 7] | Zeta-Potential / mV [2, 8] | Log10 Count Rate [3, 9] | Count Rate / kcps [3] | Log10 Count Rate [3, 10] | Log10 Count Rate [3, 11] | Rel-EFC ([4]; 1.3 µM peptide) | Log10 Infection Rel EFC ([4]; 1.3 µM peptide) | Log Infectivity [4, 12] | Log10 Infection Rel EF-C [4, 13] | Log10 Infection Rel EF-C [4, 14] | Log10 Infection Rel EF-C [4, 15] | b -sheet / % [5] | Log10 of Rel to EFC (Feb2021) ([4]; all peptides of FigS16) | Zeta-Pot. [2] | Abs. Inf. [4] | other results |
| --- | --- | --- | --- | --- | --- | --- | --- | --- | --- | --- | --- | --- | --- | --- | --- | --- | --- | --- | --- | --- |
| KIKIQII | 1039 | 3.017 | 5.61 | 6.302 mV | 5.61 mV | 3.017 | 1039 kcps | 3.017 | 3.017 | 0,02 | -1,73 | -1.729 | -1.73 | -1.729 | -1.729 | 44.64% | – | – | – | – |
| KIKIQIII | 94.97 | 1.978 | 19.8 | 19.13 mV | 19.8 mV | 1.978 | 95 kcps | 1.978 | 1.978 | 0,35 | -0,45 | -0.4521 | -0.45 | -0.4521 | -0.4521 | 45.8425% | -0.45 | – | – | Log Infectivity ([4]; Fig. S7 panel B (plotted against CR), rounded to two decimals): -0.45 |
| KIKIQIMQWN | 2202.7 | 3.343 | – | 8.94 mV | 9.44 mV | 3.343 | 2203 kcps | 3.343 | 3.343 | 0,72 | -0,15 | -0.1454 | -0.15 | -0.1454 | -0.1454 | 40.38% | -0.15 | 9.44 | 11623.33333 | – |
| KIKIQIMWNQ | 1887 | 3.2757 | – | 4.42 mV | 2.96 mV | 3.2757 | 1887 kcps | 3.2757 | 3.2757 | 0,56 | -0,25 | -0.2495 | -0.25 | -0.2495 | -0.2495 | 41.4% | -0.25 | 2.96 | 9147 | – |
| KIKIQINMWQRGD | 2783 | 3.445 | – | -0.495 mV | 1.69 mV | 3.445 | 2783 kcps | 3.445 | 3.445 | 0,01 | -1,92 | -1.917 | -1.92 | -1.917 | -1.917 | 47.72% | – | 1.69 | 196.7 | Zeta pot. / mV ([2]; 1 mg/mL in PBS pH 7.4 from 10 mg/mL DMSO stock, 1 d RT, 60 µL diluted in 600 µL 1 mM KCl, Zetasizer Nano ZS, Smoluchowski, mean of triplicate): 1.7 mV; Log10 Count Rate ([3]; logarithm of count rate in kcps): 3.4; Inf. rel. EF-C ([4]; HIV-1 infection relative to EF-C, Fig 23 plot, panels A and B, mean of 3 values): 0.008366; Inf. rel. EF-C ([4]; HIV-1 infection relative to EF-C, Fig 23 plot, single data point, replicate 1): 0.00461; Inf. rel. EF-C ([4]; HIV-1 infection relative to EF-C, Fig 23 plot, single data point, replicate 2): 0.009457; Inf. rel. EF-C ([4]; HIV-1 infection relative to EF-C, Fig 23 plot, single data point, replicate 3): 0.01103; Abs. Inf. / RLU s-1 ([4]; absolute infection rate, peptide 1.3 µM on cells, virus preincubated 10 min with fibrils, read 3 days post infection, mean of triplicate): 197 RLU s-1; Inf. rel. EF-C ([4]; n-fold infection vs virus only, relative to that of EF-C, 1.3 µM peptide): 0.01; ß-sheet / % ([5]; ATR-FT-IR of lyophilised 1 mg/mL PNF solution, peak integral ratio 1625-1635 cm-1, measured once): 48% |
| KIKIQINMWWQ | 3893 | 3.59 | – | 13.17 mV | 11.8 mV | 3.59 | 3893 kcps | 3.59 | 3.59 | 3,21 | 0,51 | 0.5063 | 0.51 | 0.5063 | 0.5063 | 50.48% | 0.51 | 11.8 | 17976.66667 | Zeta Count Rate [3]: 3893 kcp; Log10 of Rel to EFC (Feb2021) [4, 16]: 0.51; beta sheet [5]: 50 |
| KIKIQINMWWWQ | 7596.3 | 3.8806 | – | 9.633 mV | 9.45 mV | 3.8806 | 7596 kcps | 3.8806 | 3.8806 | 2,75 | 0,44 | 0.4391 | 0.44 | 0.4391 | 0.4391 | 47.92% | 0.44 | 9.45 | 15400 | Zeta Count Rate [3]: 7596 kcp; Log10 of Rel to EFC (Feb2021) [4, 16]: 0.44; beta sheet [5]: 48 |
| KIKIQIRGD | 114 | 2.057 | 6.43 | 4.47 mV | 6.43 mV | 2.057 | 114 kcps | 2.057 | 2.057 | 0,02 | -1,68 | -1.678 | -1.68 | -1.678 | -1.678 | 47.12% | – | – | – | – |
